Results reported in PubChem BioAssay (NCI).
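Cultured in 96-well plates, cells were exposed to test compound for 48 hours across five concentrations. Abbreviation: GI50, concentration required for 50% inhibition of growth. The concentration for full growth arrest is given as TGI.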

Legend:
Experiment in all cases: NCI-60 cell line screen, 48 h
HL-60(TB) leukemia = system: HL-60(TB) leukemia
U251 CNS = system: U251 CNS
RXF 393 renal = system: RXF 393 renal
MALME-3M melanoma = system: MALME-3M melanoma
BT-549 breast = system: BT-549 breast
OVCAR-3 ovarian = system: OVCAR-3 ovarian
SR leukemia = system: SR leukemia
SW-620 colon = system: SW-620 colon
TK-10 renal = system: TK-10 renal
HCC-2998 colon = system: HCC-2998 colon
NCI-H460 lung = system: NCI-H460 lung
T-47D breast = system: T-47D breast
KM12 colon = system: KM12 colon
OVCAR-5 ovarian = system: OVCAR-5 ovarian
OVCAR-4 ovarian = system: OVCAR-4 ovarian
NCI-H226 lung = system: NCI-H226 lung
UACC-257 melanoma = system: UACC-257 melanoma
MOLT-4 leukemia = system: MOLT-4 leukemia
COLO 205 colon = system: COLO 205 colon
K-562 leukemia = system: K-562 leukemia
OVCAR-8 ovarian = system: OVCAR-8 ovarian
HOP-92 NSCLC = system: HOP-92 NSCLC
786-0 renal = system: 786-0 renal
M14 melanoma = system: M14 melanoma
LOX IMVI melanoma = system: LOX IMVI melanoma
HCT-15 colon = system: HCT-15 colon
EKVX NSCLC = system: EKVX NSCLC
NCI/ADR-RES ovarian = system: NCI/ADR-RES ovarian
A549 NSCLC = system: A549 NSCLC
MCF7 breast = system: MCF7 breast
CAKI-1 renal = system: CAKI-1 renal
SK-MEL-2 melanoma = system: SK-MEL-2 melanoma
SNB-19 CNS = system: SNB-19 CNS
HCT-116 colon = system: HCT-116 colon
NCI-H522 lung = system: NCI-H522 lung
SK-MEL-28 melanoma = system: SK-MEL-28 melanoma
NCI-H23 lung = system: NCI-H23 lung
SNB-75 CNS = system: SNB-75 CNS
DU-145 prostate = system: DU-145 prostate
ACHN renal = system: ACHN renal
SF-295 CNS = system: SF-295 CNS
MDA-MB-435 = system: MDA-MB-435
MDA-MB-231 breast = system: MDA-MB-231 breast
UO-31 renal = system: UO-31 renal
SK-MEL-5 melanoma = system: SK-MEL-5 melanoma
SK-OV-3 ovarian = system: SK-OV-3 ovarian
RPMI-8226 leukemia = system: RPMI-8226 leukemia
CCRF-CEM leukemia = system: CCRF-CEM leukemia
SF-268 CNS = system: SF-268 CNS
SN12C renal = system: SN12C renal
HOP-62 NSCLC = system: HOP-62 NSCLC
HS 578T breast = system: HS 578T breast
IGROV1 ovarian = system: IGROV1 ovarian
PC-3 prostate = system: PC-3 prostate
UACC-62 melanoma = system: UACC-62 melanoma
HT29 colon = system: HT29 colon
A498 renal = system: A498 renal

CC/C=C\C[C@H](O)C/C=C1/C(=O)C=C[C@@H]1C/C=C\CCCC(=O)NC(C)C
GI50 (HL-60(TB) leukemia): 2.67 µM
TGI (HL-60(TB) leukemia): 9.1 µM
GI50 (U251 CNS): 2.61 µM
TGI (U251 CNS): 7.08 µM
GI50 (RXF 393 renal): 2.14 µM
TGI (RXF 393 renal): 3.94 µM
GI50 (MALME-3M melanoma): 2.4 µM
TGI (MALME-3M melanoma): 6.69 µM
GI50 (BT-549 breast): 2.45 µM
TGI (BT-549 breast): 6.13 µM
GI50 (OVCAR-3 ovarian): 2.63 µM
TGI (OVCAR-3 ovarian): 8.41 µM
GI50 (SR leukemia): 2.43 µM
TGI (SR leukemia): 8.33 µM
GI50 (SW-620 colon): 3.16 µM
TGI (SW-620 colon): 10.8 µM
GI50 (TK-10 renal): 3.73 µM
TGI (TK-10 renal): 9.64 µM
GI50 (HCC-2998 colon): 1.87 µM
TGI (HCC-2998 colon): 3.42 µM
GI50 (NCI-H460 lung): 2.43 µM
TGI (NCI-H460 lung): 5.79 µM
GI50 (T-47D breast): 4.19 µM
TGI (T-47D breast): 19.2 µM
GI50 (KM12 colon): 1.91 µM
TGI (KM12 colon): 4.89 µM
GI50 (OVCAR-5 ovarian): 4.55 µM
TGI (OVCAR-5 ovarian): 16.6 µM
GI50 (OVCAR-4 ovarian): 4.27 µM
TGI (OVCAR-4 ovarian): 18.4 µM
GI50 (NCI-H226 lung): 2.31 µM
TGI (NCI-H226 lung): 4.74 µM
GI50 (UACC-257 melanoma): 2.17 µM
TGI (UACC-257 melanoma): 6.22 µM
GI50 (MOLT-4 leukemia): 2.72 µM
TGI (MOLT-4 leukemia): 11 µM
GI50 (COLO 205 colon): 2.51 µM
TGI (COLO 205 colon): 5.44 µM
GI50 (K-562 leukemia): 2.86 µM
TGI (K-562 leukemia): 38.9 µM
GI50 (OVCAR-8 ovarian): 3.04 µM
TGI (OVCAR-8 ovarian): 10.7 µM
GI50 (HOP-92 NSCLC): 2.75 µM
TGI (HOP-92 NSCLC): 6.08 µM
GI50 (786-0 renal): 2.47 µM
TGI (786-0 renal): 5.4 µM
GI50 (M14 melanoma): 2.87 µM
TGI (M14 melanoma): 10 µM
GI50 (LOX IMVI melanoma): 1.06 µM
TGI (LOX IMVI melanoma): 2.5 µM
GI50 (HCT-15 colon): 2.02 µM
TGI (HCT-15 colon): 4.92 µM
GI50 (EKVX NSCLC): 4 µM
TGI (EKVX NSCLC): 15 µM
GI50 (NCI/ADR-RES ovarian): 3.28 µM
TGI (NCI/ADR-RES ovarian): 13.6 µM
GI50 (A549 NSCLC): 3.24 µM
TGI (A549 NSCLC): 9.46 µM
GI50 (MCF7 breast): 2.18 µM
TGI (MCF7 breast): 13.9 µM
GI50 (CAKI-1 renal): 2.08 µM
TGI (CAKI-1 renal): 4.39 µM
GI50 (SK-MEL-2 melanoma): 2.52 µM
TGI (SK-MEL-2 melanoma): 6.88 µM
GI50 (SNB-19 CNS): 8.75 µM
TGI (SNB-19 CNS): 22.6 µM
GI50 (HCT-116 colon): 1.73 µM
TGI (HCT-116 colon): 3.59 µM
GI50 (NCI-H522 lung): 1.59 µM
TGI (NCI-H522 lung): 3.24 µM
GI50 (SK-MEL-28 melanoma): 2.14 µM
TGI (SK-MEL-28 melanoma): 4.98 µM
GI50 (NCI-H23 lung): 2.33 µM
TGI (NCI-H23 lung): 6.09 µM
GI50 (SNB-75 CNS): 8.2 µM
TGI (SNB-75 CNS): 21 µM
GI50 (DU-145 prostate): 3.22 µM
TGI (DU-145 prostate): 13.5 µM
GI50 (ACHN renal): 1.84 µM
TGI (ACHN renal): 3.49 µM
GI50 (SF-295 CNS): 2.42 µM
TGI (SF-295 CNS): 5.69 µM
GI50 (MDA-MB-435): 2.3 µM
TGI (MDA-MB-435): 6.51 µM
GI50 (MDA-MB-231 breast): 4.72 µM
TGI (MDA-MB-231 breast): 16.7 µM
GI50 (UO-31 renal): 1.94 µM
TGI (UO-31 renal): 4.11 µM
GI50 (SK-MEL-5 melanoma): 1.8 µM
TGI (SK-MEL-5 melanoma): 3.35 µM
GI50 (SK-OV-3 ovarian): 4.57 µM
TGI (SK-OV-3 ovarian): 14.8 µM
GI50 (RPMI-8226 leukemia): 2.73 µM
TGI (RPMI-8226 leukemia): 7.02 µM
GI50 (CCRF-CEM leukemia): 2.09 µM
TGI (CCRF-CEM leukemia): 8.38 µM
GI50 (SF-268 CNS): 3 µM
TGI (SF-268 CNS): 13.3 µM
GI50 (SN12C renal): 2.51 µM
TGI (SN12C renal): 6.35 µM
GI50 (HOP-62 NSCLC): 2.65 µM
TGI (HOP-62 NSCLC): 6.59 µM
GI50 (HS 578T breast): 7.74 µM
TGI (HS 578T breast): 49.5 µM
GI50 (IGROV1 ovarian): 2.94 µM
TGI (IGROV1 ovarian): 10 µM
GI50 (PC-3 prostate): 2.52 µM
TGI (PC-3 prostate): 6.24 µM
GI50 (UACC-62 melanoma): 1.77 µM
TGI (UACC-62 melanoma): 4.22 µM
GI50 (HT29 colon): 2.23 µM
TGI (HT29 colon): 4.11 µM
GI50 (A498 renal): 5.16 µM
TGI (A498 renal): 16.3 µM
